According to ChEMBL document CHEMBL1201862, “PubChem BioAssay data set” (2004):
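Grown in 96-well plates, cells were treated for 48 hours with each compound at five concentrations. Insufficient inhibition: endpoint recorded as highest concentration tested. GI50: concentration for 50% inhibition of growth.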 Activity calls are given as the source filed them. No stated cut-off is given here; in the data, active = GI50 up to about 1.1 µM and inactive = higher.

Key:
Experiment in all cases: DTP human tumour cell line panel, 48 h
[1] = test system: SF-268
[2] = test system: M14
[3] = test system: EKVX
[4] = test system: HCT-15
[5] = test system: Hs-578T
[6] = test system: NCI-H460
[7] = test system: MDA-MB-435
[8] = test system: ACHN
[9] = test system: PC-3
[10] = test system: UACC-257
[11] = test system: SK-MEL-28
[12] = test system: UO-31
[13] = test system: 786-0
[14] = test system: SK-MEL-5
[15] = test system: T47D
[16] = test system: MCF7
[17] = test system: NCI-H23
[18] = test system: SR
[19] = test system: HCC 2998
[20] = test system: HL-60

| Compound | GI50 [1] | GI50 [2] | GI50 [3] | GI50 [4] [µM] | GI50 [5] | GI50 [6] | GI50 [7] | GI50 [8] | GI50 [9] | GI50 [10] | GI50 [11] | GI50 [12] | GI50 [13] | GI50 [14] | GI50 [15] | GI50 [16] | GI50 [17] | GI50 [18] | GI50 [19] | GI50 [20] |
| --- | --- | --- | --- | --- | --- | --- | --- | --- | --- | --- | --- | --- | --- | --- | --- | --- | --- | --- | --- | --- |
| COc1cccc(CSCC(=O)O)c1 | > 100 µM (inactive) | > 100 µM (inactive) | > 100 µM (inactive) | > 100 | > 100 µM (inactive) | > 100 µM (inactive) | > 100 µM (inactive) | > 100 µM (inactive) | > 100 µM (inactive) | > 100 µM (inactive) | > 100 µM (inactive) | > 100 µM (inactive) | > 100 µM (inactive) | > 100 µM (inactive) | > 100 µM (inactive) | > 100 µM (inactive) | > 100 µM (inactive) |  |  |  |
| CCC(C(=O)C(=O)OC)P1(=O)OC(C)(C)CN1C(C)(C)C (configuration not stated) | > 100 µM (inactive) | > 100 µM (inactive) | > 100 µM (inactive) | > 100 |  | > 100 µM (inactive) | > 100 µM (inactive) | > 100 µM (inactive) | > 100 µM (inactive) | > 100 µM (inactive) | 11.9 µM (inactive) | > 100 µM (inactive) | > 100 µM (inactive) | > 100 µM (inactive) | > 100 µM (inactive) | 26.9 µM (inactive) | > 100 µM (inactive) | > 100 µM (inactive) | > 100 µM (inactive) |  |
| O=[N+]([O-])c1cccnc1NCC1(CO)CCCC1 | 32.2 µM (inactive) |  | 27.8 µM (inactive) | 18.5 | 24.5 µM (inactive) | 22.5 µM (inactive) | 22.4 µM (inactive) | 27 µM (inactive) | 19.1 µM (inactive) | 20.6 µM (inactive) | 23.2 µM (inactive) |  | 26.7 µM (inactive) | 17.1 µM (inactive) |  | 42.7 µM (inactive) | 32.6 µM (inactive) | 25.4 µM (inactive) | 18.8 µM (inactive) | 22.4 µM (inactive) |
| C=CCN(c1cc(OCc2ccccc2)c2c(c1)c(C)cn2S(=O)(=O)c1ccccc1)S(C)(=O)=O | > 100 µM (inactive) | > 100 µM (inactive) | > 100 µM (inactive) | > 100 | > 100 µM (inactive) | > 100 µM (inactive) | > 100 µM (inactive) | > 100 µM (inactive) | > 100 µM (inactive) | > 100 µM (inactive) | > 100 µM (inactive) |  | > 100 µM (inactive) | > 100 µM (inactive) | > 100 µM (inactive) |  | > 100 µM (inactive) | > 100 µM (inactive) | > 100 µM (inactive) | > 100 µM (inactive) |
| Cc1ccc(Nc2[nH]c(=O)[nH]c(=O)c2C)cc1Cl | 87.7 µM (inactive) | > 100 µM (inactive) | 11 µM (inactive) | 91.6 | 70 µM (inactive) | > 100 µM (inactive) | > 100 µM (inactive) | > 100 µM (inactive) | 67.9 µM (inactive) | > 100 µM (inactive) | > 100 µM (inactive) | 30.4 µM (inactive) | > 100 µM (inactive) | 92 µM (inactive) | > 100 µM (inactive) | 19.5 µM (inactive) | > 100 µM (inactive) |  | > 100 µM (inactive) |  |
| Cc1ccc(OCCn2cc(Nc3ccccc3)c(=O)n(CCOc3ccc(C)cc3)c2=O)cc1 | 35.6 µM (inactive) | > 100 µM (inactive) | > 100 µM (inactive) | > 100 | 67.6 µM (inactive) | > 100 µM (inactive) | > 100 µM (inactive) | > 100 µM (inactive) | 93.5 µM (inactive) | > 100 µM (inactive) | > 100 µM (inactive) | > 100 µM (inactive) | 48 µM (inactive) | > 100 µM (inactive) | > 100 µM (inactive) | > 100 µM (inactive) | > 100 µM (inactive) |  | > 100 µM (inactive) |  |
| COc1cc(CNc2nc3cc(C(F)(F)F)ccc3nc2C)cc(OC)c1OC | 25.6 µM (inactive) | 12.4 µM (inactive) | 17 µM (inactive) | 13.1 | 13.5 µM (inactive) | 16.3 µM (inactive) | 19.5 µM (inactive) | 13.6 µM (inactive) |  | 16.6 µM (inactive) | 20.4 µM (inactive) | 17.7 µM (inactive) | > 10 µM (inactive) | 19.7 µM (inactive) | 17.9 µM (inactive) | > 10 µM (inactive) | 18.9 µM (inactive) | 14.5 µM (inactive) | 18.3 µM (inactive) | 16.5 µM (inactive) |
| N#CCCN(CCC#N)c1ccc(/C=C2\N=C(c3ccccc3)N(NC(=O)c3ccncc3)C2=O)cc1 | > 100 µM (inactive) | > 100 µM (inactive) | > 100 µM (inactive) | > 100 | > 100 µM (inactive) | > 100 µM (inactive) | 69.3 µM (inactive) | > 100 µM (inactive) | > 100 µM (inactive) | > 100 µM (inactive) | > 100 µM (inactive) | > 100 µM (inactive) | > 100 µM (inactive) | > 100 µM (inactive) | > 100 µM (inactive) | > 100 µM (inactive) |  |  |  | 36.7 µM (inactive) |
| CC(C)(C)Nc1noc(=O)n1C(C)(C)C | > 100 µM (inactive) | > 100 µM (inactive) | > 100 µM (inactive) | > 100 | > 100 µM (inactive) | > 100 µM (inactive) | > 100 µM (inactive) | > 100 µM (inactive) | > 100 µM (inactive) | > 100 µM (inactive) | > 100 µM (inactive) | > 100 µM (inactive) | > 100 µM (inactive) | > 100 µM (inactive) |  | > 100 µM (inactive) | > 100 µM (inactive) | > 100 µM (inactive) |  | > 100 µM (inactive) |
| CC(=O)OCC1OC(n2c(C)c(C(C)=O)c(-c3cccc4ccccc34)c(C#N)c2=S)C(OC(C)=O)C(OC(C)=O)C1OC(C)=O (configuration not stated) | > 100 µM (inactive) | > 100 µM (inactive) | > 100 µM (inactive) | > 100 |  | > 100 µM (inactive) | > 100 µM (inactive) | > 100 µM (inactive) | > 100 µM (inactive) | > 100 µM (inactive) | > 100 µM (inactive) | < 0.01 µM (active) | > 100 µM (inactive) | 28.7 µM (inactive) | > 100 µM (inactive) | > 100 µM (inactive) | > 100 µM (inactive) | > 100 µM (inactive) | > 100 µM (inactive) | > 100 µM (inactive) |
| O=C1CC=C2C3CC4N(CCC45c4ccccc4N1C25)C/C3=C\CO (configuration not stated) | > 100 µM (inactive) |  | > 100 µM (inactive) | > 100 | > 100 µM (inactive) | > 100 µM (inactive) | > 100 µM (inactive) | > 100 µM (inactive) | > 100 µM (inactive) | > 100 µM (inactive) | > 100 µM (inactive) | > 100 µM (inactive) | > 100 µM (inactive) | > 100 µM (inactive) | > 100 µM (inactive) | > 100 µM (inactive) | > 100 µM (inactive) |  | > 100 µM (inactive) | > 100 µM (inactive) |
| O=C1C(=CNc2ccccc2Cl)C(=O)N(c2ccccc2)C(=O)N1c1ccccc1 | > 100 µM (inactive) | 92.7 µM (inactive) | > 100 µM (inactive) | > 100 | 80.4 µM (inactive) | > 100 µM (inactive) | > 100 µM (inactive) | > 100 µM (inactive) | > 100 µM (inactive) | > 100 µM (inactive) |  | > 100 µM (inactive) | > 100 µM (inactive) | > 100 µM (inactive) | > 100 µM (inactive) | > 100 µM (inactive) | > 100 µM (inactive) |  | > 100 µM (inactive) |  |
| COc1ccc(COCC[C@H](C)OC2OC(CO[Si](C)(C)C(C)(C)C)C(OC(=O)CCCN=[N+]=[N-])C(OC(=O)CCCN=[N+]=[N-])C2OC(=O)CCCN=[N+]=[N-])cc1 (some centres not stated) | 35.3 µM (inactive) | 68.5 µM (inactive) | 33.2 µM (inactive) | 28.4 | > 100 µM (inactive) | 55.5 µM (inactive) | > 100 µM (inactive) |  | 28.6 µM (inactive) | 26.5 µM (inactive) | > 100 µM (inactive) | 19.9 µM (inactive) | 43.7 µM (inactive) | 9.64 µM (inactive) | 31 µM (inactive) | 25.9 µM (inactive) | 31.8 µM (inactive) |  | 34.4 µM (inactive) | 10.6 µM (inactive) |
| O=C1[C@H](O)[C@@H]2C(O)O[C@H]3[C@@H]2N1C[C@H]3[Si](c1ccccc1)(c1ccccc1)c1ccccc1 (some centres not stated) | > 100 µM (inactive) | > 100 µM (inactive) | > 100 µM (inactive) | > 100 |  | > 100 µM (inactive) | > 100 µM (inactive) | > 100 µM (inactive) | > 100 µM (inactive) | > 100 µM (inactive) | > 100 µM (inactive) | > 100 µM (inactive) | > 100 µM (inactive) | > 100 µM (inactive) | 29.1 µM (inactive) | > 100 µM (inactive) | > 100 µM (inactive) | > 100 µM (inactive) | > 100 µM (inactive) |  |
| CC1=C2C(=O)O[C@@H](c3ccoc3)[C@]2(C)CCC1=O [FRAXINELLONONE] |  | > 100 µM (inactive) | > 100 µM (inactive) | > 100 |  | > 100 µM (inactive) | > 100 µM (inactive) | > 100 µM (inactive) | > 100 µM (inactive) | > 100 µM (inactive) | > 100 µM (inactive) | > 100 µM (inactive) | > 100 µM (inactive) | > 100 µM (inactive) | > 100 µM (inactive) | > 100 µM (inactive) | > 100 µM (inactive) | > 100 µM (inactive) | > 100 µM (inactive) |  |
